{
  "source": "patent US8680010B2",
  "about": "“Synergistic herbicidal composition containing penoxsulam and florasulam” (Dow AgroSciences, LLC., priority 2011, dated 2014)",
  "format_in_all_cases": "in vivo",
  "key": {"[1]": {"tested_on": "common mallow (Malva neglecta Wallr.)", "assay": "Field weed control by penoxsulam plus florasulam, MALNE", "conditions": "90 DAA", "protocol": "(§1) Field trials were conducted in olive tree crops in Spain using standard herbicide small plot research methodology. Plot size was typical for small plot research in tree crops, varying from 4 to 10 meters (m) wide by 4 to 10 m long. […] Soil types ranged from coarse to medium to fine soil texture. Perennial olive crops were transplanted by hand into orchards as per normal local cultural practices. The olive crop was grown using normal cultural practices for fertilization, watering and maintenance to ensure good growth of the crop and the weeds.\n(§2) Treatments were applied by backpack sprayer using either compressed air or CO2, at spray pressures at 300 kilopascals (kPa). Spray tips were typically Flat Fan Teejet nozzles, such as FanJet 120 or Teejet 11003 VP. Spray volumes were approximately 300 liters per hectare (L/ha). […]\n(§3) For each treatment, the appropriate formulated product amount to treat the plot area, to achieve the desired application rate, based on unit area of application (hectare), was calculated, measured, and mixed in water prior to applying with the backpack sprayer […]"}, "[2]": {"tested_on": "horseweed (Conyza canadensis (L.) Cronq.)", "assay": "Field weed control by penoxsulam plus florasulam, ERICA", "conditions": "99-175 DAA", "protocol": "as §1, §2, §3"}, "[3]": {"tested_on": "corn salad (Valerianella echinata)", "assay": "Field weed control by penoxsulam plus florasulam, VLLEC", "conditions": "90 DAA", "protocol": "as §1\n(§4) Treatments were applied by backpack sprayer using either compressed air or CO2, at spray pressures at 300 kilopascals (kPa). Spray tips were typically Flat Fan Teejet nozzles, such as FanJet 120 or Teejet 11003 VP. Spray volumes were approximately 300 liters per hectare (L/ha). The weed spectrum included, but was not limited to, chamomile, (Anthemis cotula L., […]), field marigold (Calendula arvensis, CLDAR), henbit (Lamium amplexicaule L, LAMAM), annual sowthistle (Sonchus oleraceus L., SONOL), common mallow (Malva neglecta Wallr., MALNE), corn salad (Valerianella echinata, VLLEC), horseweed (Conyza canadensis (L.) Cronq., ERICA), field madder (Sherardia arvensis L., SHRAR), and sowthistle (Sonchus species, SONSS). Treatments were applied preemergence or early postemergence to the stage of the weeds. Olive tree spacings were typically rows that were 7 to 8 m apart, and trees in the row were from 4 to 6 m apart.\n(§5) For each treatment, the appropriate formulated product amount to treat the plot area, to achieve the desired application rate, based on unit area of application (hectare), was calculated, measured, and mixed in water prior to applying with the backpack sprayer\n(§6) Treatments were rated as compared to the untreated control plots.\n(§7) The treated plots and control plots were rated blind at various intervals after application. Ratings were based of Percent (%) Visual weed control, where 0 corresponds to no injury and 100 corresponds to complete kill.\n(§8) The following equation was used to calculate the expected activity of mixtures containing two active ingredients, A and B: Expected=A+B−(A×B/100)\n(§9) A=observed efficacy of active ingredient A at the same concentration as used in the mixture;\n(§10) B=observed efficacy of active ingredient B at the same concentration as used in the mixture."}, "[4]": {"tested_on": "sowthistle (Sonchus species)", "assay": "Field weed control by penoxsulam plus florasulam, SONSS", "conditions": "99-175 DAA", "protocol": "as §1, §2, §3"}, "[5]": {"tested_on": "annual sowthistle (Sonchus oleraceus L.)", "assay": "Field weed control by penoxsulam plus florasulam, SONOL", "conditions": "30-45 DAA", "protocol": "as §1, §4, §5, §6, §7, §8, §9, §10"}, "[6]": {"tested_on": "field marigold (Calendula arvensis)", "assay": "Field weed control by penoxsulam plus florasulam, CLDAR", "conditions": "30-45 DAA", "protocol": "as §1, §2, §3"}, "[7]": {"tested_on": "field madder (Sherardia arvensis L.)", "assay": "Field weed control by penoxsulam plus florasulam, SHRAR", "conditions": "99-175 DAA", "protocol": "as §1, §2, §3"}, "[8]": {"tested_on": "chamomile, mayweed (Anthemis cotula L.)", "assay": "Field weed control by penoxsulam plus florasulam, ANTCO", "conditions": "30-45 DAA", "protocol": "as §1, §4, §5, §6, §7, §8, §9, §10"}, "[9]": {"tested_on": "henbit (Lamium amplexicaule L.)", "assay": "Field weed control by penoxsulam plus florasulam, LAMAM", "conditions": "30-45 DAA", "protocol": "as §1, §4, §5, §6, §7, §8, §9, §10"}},
  "data": [
    {"compound": "COc1ncc(F)c2nc(S(=O)(=O)Nc3c(F)cccc3F)nn12", "note": "[Florasulam, N-(2,6-difluorophenyl)-8-fluoro-5-methoxy[1,2,4]-triazolo[1,5-c]pyrimidine-2-sulfonamide]", "values": [
      {"measurement": "% Control MALNE Obs", "setting": "[1]; florasulam 5 gai/ha", "value": 50, "unit": "%"},
      {"measurement": "% Control ERICA Obs", "setting": "[2]; florasulam 7.5 gai/ha", "value": 51, "unit": "%"},
      {"measurement": "% Control VLLEC Obs", "setting": "[3]; florasulam 5 gai/ha", "value": 10, "unit": "%"},
      {"measurement": "% Control VLLEC Obs", "setting": "[3]; florasulam 6.3 gai/ha", "value": 10, "unit": "%"},
      {"measurement": "% Control SONSS Obs", "setting": "[4]; florasulam 7.5 gai/ha", "value": 8, "unit": "%"},
      {"measurement": "% Control SONOL Obs", "setting": "[5]; florasulam 5 gai/ha", "value": 50, "unit": "%"},
      {"measurement": "% Control SONOL Obs", "setting": "[5]; florasulam 6.3 gai/ha", "value": 60, "unit": "%"},
      {"measurement": "% Control SONOL Obs", "setting": "[5]; florasulam 7.5 gai/ha", "value": 60, "unit": "%"},
      {"measurement": "% Control CLDAR Obs", "setting": "[6]; florasulam 5 gai/ha", "value": 40, "unit": "%"},
      {"measurement": "% Control SHRAR Obs", "setting": "[7]; florasulam 7.5 gai/ha", "value": 0, "unit": "%"},
      {"measurement": "% Control ANTCO Obs", "setting": "[8]; florasulam 5 gai/ha", "value": 50, "unit": "%"},
      {"measurement": "% Control ANTCO Obs", "setting": "[8]; florasulam 6.3 gai/ha", "value": 69, "unit": "%"},
      {"measurement": "% Control ANTCO Obs", "setting": "[8]; florasulam 7.5 gai/ha", "value": 95, "unit": "%"},
      {"measurement": "% Control LAMAM Obs", "setting": "[9]; florasulam 5 gai/ha", "value": 5, "unit": "%"},
      {"measurement": "% Control LAMAM Obs", "setting": "[9]; florasulam 6.3 gai/ha", "value": 30, "unit": "%"},
      {"measurement": "% Control LAMAM Obs", "setting": "[9]; florasulam 7.5 gai/ha", "value": 30, "unit": "%"}
    ]},
    {"compound": "COc1cnc(OC)n2nc(NS(=O)(=O)c3c(OCC(F)F)cccc3C(F)(F)F)nc12", "note": "[Penoxsulam]", "values": [
      {"measurement": "% Control MALNE Obs", "setting": "[1]; penoxsulam 10 gai/ha", "value": 8, "unit": "%"},
      {"measurement": "% Control ERICA Obs", "setting": "[2]; penoxsulam 20 gai/ha", "value": 23, "unit": "%"},
      {"measurement": "% Control VLLEC Obs", "setting": "[3]; penoxsulam 10 gai/ha", "value": 80, "unit": "%"},
      {"measurement": "% Control VLLEC Obs", "setting": "[3]; penoxsulam 13 gai/ha", "value": 80, "unit": "%"},
      {"measurement": "% Control SONSS Obs", "setting": "[4]; penoxsulam 20 gai/ha", "value": 53, "unit": "%"},
      {"measurement": "% Control SONOL Obs", "setting": "[5]; penoxsulam 10 gai/ha", "value": 0, "unit": "%"},
      {"measurement": "% Control SONOL Obs", "setting": "[5]; penoxsulam 13 gai/ha", "value": 2, "unit": "%"},
      {"measurement": "% Control SONOL Obs", "setting": "[5]; penoxsulam 15 gai/ha", "value": 5, "unit": "%"},
      {"measurement": "% Control CLDAR Obs", "setting": "[6]; penoxsulam 10 gai/ha", "value": 5, "unit": "%"},
      {"measurement": "% Control SHRAR Obs", "setting": "[7]; penoxsulam 20 gai/ha", "value": 0, "unit": "%"},
      {"measurement": "% Control ANTCO Obs", "setting": "[8]; penoxsulam 10 gai/ha", "value": 0, "unit": "%"},
      {"measurement": "% Control ANTCO Obs", "setting": "[8]; penoxsulam 13 gai/ha", "value": 5, "unit": "%"},
      {"measurement": "% Control ANTCO Obs", "setting": "[8]; penoxsulam 15 gai/ha", "value": 5, "unit": "%"},
      {"measurement": "% Control LAMAM Obs", "setting": "[9]; penoxsulam 10 gai/ha", "value": 0, "unit": "%"},
      {"measurement": "% Control LAMAM Obs", "setting": "[9]; penoxsulam 13 gai/ha", "value": 0, "unit": "%"},
      {"measurement": "% Control LAMAM Obs", "setting": "[9]; penoxsulam 15 gai/ha", "value": 4, "unit": "%"}
    ]}
  ]
}
